Measured values taken from a melting point compilation (Tetko et al.; mined from patent text by program, amines drawn as free bases though some values may be those of a salt).

melting point [°C] | SMILES
155 to 156 | CC(C)(C)c1ccc(CCC(=O)C2CCCCCC2)cc1NC(=O)CC1c2ccccc2Oc2ccccc21
99.5 to 101 | COc1ccc2c(c1)C(=O)OCN2c1ccccc1
181 to 183 | O=C(O)C1CCc2[nH]c3ccc(Cl)cc3c2C1 (centres undefined)
108 to 110 | CO[C@H]1c2ccn3c(C)c(C)nc3c2N[C@H](c2ccccc2)[C@H]1O
208 to 210 | CCN(Cc1cc(Br)ccc1N)c1ccc(C(N)=O)nn1
214 to 217 | C=CS(=O)(=O)c1cc2c(Nc3cccc(Br)c3)ncnc2cn1
223 to 227 | COC(=O)c1c(Cc2ccc(S(=O)(=O)N3CCN(C)CC3)cc2)c(=O)c2ccc(Cl)cc2n1-c1ccccc1
156 to 157 | COc1ccc([N+](=O)[O-])cc1C=C1COc2ccc(OCc3ccccc3)cc2C1=O
198 | Fc1ccc(-c2csc(NN=Cc3cn(Cc4ccc(Cl)cc4Cl)c4ccccc34)n2)cc1
226 to 227 | COCCc1nc2c(N)nc3ccccc3c2n1CCCCNC(=O)c1c[nH]c2ccccc12
116 | N#Cc1cn(Cc2c(F)cccc2F)nn1
138 to 139 | CN1CCC(C2c3cccc4c3N(CC4)c3ccccc3N2C)CC1 (centres undefined)
84 to 86 | CCCC(C(=O)NC)n1cc(C)c(-c2ccccc2)n1 (centres undefined)
154 to 156 | CCCc1nc2c(c(C)c(C)n3nnnc23)n1CC(C)(C)N
46.5 to 47 | CCCC(=O)c1ccccc1NC(C)=O
137 to 140 | CC(C)(C)CC(C)(C)n1scc(Cl)c1=O
170 | Cn1nc(-c2cc(C=NOCC(=O)O)c(Cl)cc2F)c(Cl)c1C(F)(F)F
139 to 140 | NS(=O)(=O)Oc1ccccc1C(=O)O
158 to 159 | Cc1ccc2c(c1)C=Cn1c(nnc1S(C)=O)C2 (centres undefined)

melting point [°C] | SMILES
134 to 135 | CC(C)(C)NC(=O)[C@@H]1CN(NC(=O)OC(C)(C)C)CCN1NC(=O)Cc1ccccc1
138 to 140 | COc1cc(NC2CC3CCC(C2)N3Cc2ccccc2)ccc1C(N)=O (centres undefined)
135 to 136 | Fc1ccc2c(CCCN(c3ccncc3)c3csc4cccc(Cl)c34)noc2c1
60 | Cc1c(Cc2nc(C(=O)O)cs2)n(S(=O)(=O)c2cccc(C(C)(C)C)c2)c2ccc(C(F)(F)F)cc12
50 to 52 | O=C(NCCCCCCO)OC1CCN(C(=O)OCc2ccccc2)CC1
160 to 161 | COC(=O)[C@H](CC(C)C)NC(=O)c1ccc2c(c1)Nc1ccccc1S2
170 to 172 | Cc1c(N2CC(F)C(CN)C2)c(F)cc2c(=O)n(N)c(=O)n(C3CC3)c12 (centres undefined)
47 to 48 | C1=CCC(Cc2ccc(-c3ccccc3)cc2)C1
79 to 80 | c1ccc2c(c1)COC2=N[C@@H]1CCc2ccccc21
94 | CCCCOc1cc(C=O)c([N+](=O)[O-])cc1OCc1ccccc1
100 to 101 | O=[N+]([O-])CC(O)c1nn(Cc2ccccc2)c2ccccc12 (centres undefined)
> 260 | O=c1[nH]c2ccc(C3CCN(Cc4ccc(-c5ccccc5)cc4)CC3)cc2[nH]1
89 to 91 | C[C@H](NC(=O)OCc1ccccc1)C(=O)c1ccc(OCc2ccccc2)cc1
72 to 76 | COCCCc1cc(N(C)Cc2ccc(-c3ccc(C(F)(F)F)cc3)nc2)ccc1OCC(=O)O
180 to 182 | COC(=O)c1cc(-c2ccc(OC)c(Cl)c2)nn(CC=Cc2ccc(Cl)cc2)c1=O
102 to 104 | Cc1c(Cl)nc2sc(SCc3ccccc3)nn2c1=O
188 to 191 | CCCC1=C(C(=O)OCC)C(c2c(OC)ccc3ccccc23)c2c[nH]nc2N1 (centres undefined)
> 270 | Cc1ccc(C(=O)Nc2ccc(C)c(-c3nc(S(C)(=O)=O)nc4c3CNC(=O)N4c3c(F)cccc3F)c2)cc1F

SMILES | melting point [°C]
N#Cc1nn(-c2c(Cl)cc(C(F)(F)F)cc2Cl)c(N)c1-c1ccccc1 | 198 to 199
COc1ccc2c3c1OC1CCCC4(O)C(C2)N(C(=O)C2CCC2)CCC314 (centres undefined) | 140
